The text below walks through data of patent US8084621B2, “3-Pyrrolo[b]cyclohexylene-2-dihydroindolinone derivatives and uses thereof” (Jiangsu Simcere Pharmaceutical R&D Co. Ltd., priority 2006, dated 2011).

Assay type in all cases: cell-based
Test [1] has as its system Human Non-Small Cell Lung Cancer Cell Line (A549). Description: Tumor cell proliferation assay (MTT), A549. The conditions noted are these: for inhibition at 10 µM: concentration of 10^−5 mol/L, preliminary screening, 72 hours, read-out: Inhibition rate % A549; for IC50: secondary screening, 48 hours. An outline of the steps:
A

The test system of test [2] is Human Gastric Cancer Cell Line (BGC). Description: Tumor cell proliferation assay (MTT), BGC. The conditions noted are these: for inhibition at 10 µM: concentration of 10^−5 mol/L, preliminary screening, 72 hours, read-out: Inhibition rate % BGC; for IC50: secondary screening, 48 hours.
The subject of test [3] is Human Pancreatic Carcinoma Cell Line (BXPC-3). Description: Tumor cell proliferation assay (MTT), BXPC-3. Conditions: for inhibition at 10 µM: concentration of 10^−5 mol/L, preliminary screening, 72 hours, read-out: Inhibition rate % BXPC-3; for IC50: secondary screening, 48 hours.
For test [4], the system named is Human Colon Cancer Cell Line (HT-29). Nature of the test: Tumor cell proliferation assay (MTT), HT29. The conditions noted are these: for inhibition at 10 µM: concentration of 10^−5 mol/L, preliminary screening, 72 hours, read-out: Inhibition rate % HT29; for IC50: secondary screening, 48 hours.
The test system of test [5] is Human Pancreatic Carcinoma Cells (PANC-1). Nature of the test: Tumor cell proliferation assay (MTT), PANC-1. The conditions noted are these: for inhibition at 10 µM: concentration of 10^−5 mol/L, preliminary screening, 72 hours, read-out: Inhibition rate % PANC-1; for IC50: secondary screening, 48 hours.

Molecules are shown by their SMILES.

Usually inhibition stands for how much of the control response was suppressed. What is called IC50 is the concentration that gives 50% inhibition. With `Cc1[nH]c2c(c1C(=O)NCC(O)CN1CCCC1)CCC/C2=C1/C(=O)Nc2ccc(F)cc21` (stereo not drawn) [I-71, N-(2-hydroxy-3-(pyrrolidin-1-yl)propyl)-2-methyl-7-[1,2-dihydro-5-fluoro-2-oxo-3H-indol-(Z)-3-ylidene]-4,5,6,7-tetrahydro-1H-indole-3-carboxamide], the inhibition at 10 µM in test [1] turned out to be 71.7%; in test [2] it was 82.3%; in test [3], 98.9%; in test [4], 95%; in test [5] it was 97.4%. Further, the half-inhibitory concentration (IC50) in test [1] was 2.35 µM; in test [2] it was 1.42 µM; in test [3] it was 2730 nM; in test [4], 790 nM; in test [5] it was 1.48 µM.

Consider `Cc1[nH]c2c(c1C(=O)NCC(O)CN1CCCCC1)CCC/C2=C1/C(=O)Nc2ccccc21` (stereo not drawn) [I-73, N-(2-hydroxy-3-(piperidin-1-yl)propyl)-2-methyl-7-[1,2-dihydro-2-oxo-3H-indol-(Z)-3-ylidene]-4,5,6,7-tetrahydro-1H-indole-3-carboxamide], for which the inhibition at 10 µM in test [1] came to 2.54%; in test [2], 48.8%; in test [3], 90.2%; in test [4], 95.6%; in test [5] it was 48%. Further, the 50% inhibitory concentration (IC50) in test [2] was found to be 10.2 µM; in test [3] it was 1240 nM; in test [4], 640 nM.

On to `Cc1[nH]c2c(c1C(=O)NCC(O)CN1CCCCC1)CCC/C2=C1/C(=O)Nc2ccc(F)cc21` (stereo not drawn) [I-74, N-(2-hydroxy-3-(piperidin-1-yl)propyl)-2-methyl-7-[1,2-dihydro-5-fluoro-2-oxo-3H-indol-(Z)-3-ylidene]-4,5,6,7-tetrahydro-1H-indole-3-carboxamide], for which the inhibition at 10 µM was 1.27% in test [1]; 60.2% in test [2]; 32.1% in test [3]; 92.2% in test [4]; 93.6% in test [5]. For the same molecule, the IC50 in test [2] was found to be 7.95 µM; in test [3] it was 240 nM; in test [4], 420 nM.

Consider `Cc1[nH]c2c(c1C(=O)NCC(O)CN1CCN(C)CC1)CCC/C2=C1/C(=O)Nc2ccc(F)cc21` (stereo not drawn) [I-77, N-[2-hydroxy-3-(4-methylpiperazin-1-yl)propyl]-2-methyl-7-[1,2-dihydro-5-fluoro-2-oxo-3H-indol-(Z)-3-ylidene]-4,5,6,7-tetrahydro-1H-indole-3-carboxamide], for which the inhibition at 10 µM in test [1] worked out at 50.8%; in test [2] it was 84.2%; in test [3] it was 45.9%; in test [4] it was 74.4%; in test [5], 61.9%. Also, the IC50 in test [1] was 7.12 µM; in test [2], 3.45 µM; in test [3], 8700 nM; in test [4], 8380 nM; in test [5] it was 5.53 µM.
